According to publication PMC5218480 (PLoS ONE, 2017):

Test system: MV-4-11 cells
Assay: Gene expression microarray analysis (Affymetrix PrimeView) and GSEA
Type: cell-based, human
Set-up: RFU PODN (11730768_x_at) / Fold change /veh PODN (11730768_x_at) / RFU LINC00158 (11744669_a_at) / Fold change /veh LINC00158 (11744669_a_at) / RFU DUSP10 (11751237_a_at) / Fold change /veh DUSP10 (11751237_a_at) / RFU ID3 (11757404_x_at) / Fold change /veh ID3 (11757404_x_at) / RFU PLEKHG5 (11737974_s_at) / Fold change /veh PLEKHG5 (11737974_s_at) / RFU LRRC4B (11730491_at) / Fold change /veh LRRC4B (11730491_at) / RFU GIMAP4 (11747438_a_at) / Fold change /veh GIMAP4 (11747438_a_at) / RFU KRT8 (11758183_x_at) / Fold change /veh KRT8 (11758183_x_at) / RFU CNN1 (11734310_a_at) / Fold change /veh CNN1 (11734310_a_at) / RFU VPS37D (11726825_at) / Fold change /veh VPS37D (11726825_at) / RFU C10orf10 (11716522_x_at) / Fold change /veh C10orf10 (11716522_x_at) / RFU KIR2DL2 /// KIR2DL4 /// KIR2DL5A /// KIR2DL5B /// KIR2DS1 /// KIR2DS2 /// KIR2DS3 /// KIR2DS4 /// KIR3DL3 /// KIR3DL3 /// KIR3DS1 (11738374_at) / Fold change /veh KIR2DL2 /// KIR2DL4 /// KIR2DL5A /// KIR2DL5B /// KIR2DS1 /// KIR2DS2 /// KIR2DS3 /// KIR2DS4 /// KIR3DL3 /// KIR3DL3 /// KIR3DS1 (11738374_at) / RFU C1QL1 (11718748_at) / Fold change /veh C1QL1 (11718748_at) / RFU TMPRSS4 (11747572_a_at) / Fold change /veh TMPRSS4 (11747572_a_at) / RFU HAMP (11756126_x_at) / Fold change /veh HAMP (11756126_x_at) / RFU RNFT2 (11725882_a_at) / Fold change /veh RNFT2 (11725882_a_at) / RFU NR4A2 (11747474_a_at) / Fold change /veh NR4A2 (11747474_a_at) / RFU ABCC12 (11746883_a_at) / Fold change /veh ABCC12 (11746883_a_at) / RFU TMEM136 (11760407_x_at) / Fold change /veh TMEM136 (11760407_x_at) / RFU CLDN22 /// WWC2 (11732394_at) / Fold change /veh CLDN22 /// WWC2 (11732394_at) / RFU HLA-DPB1 (11760878_x_at) / Fold change /veh HLA-DPB1 (11760878_x_at) / RFU SPINT1 (11716480_a_at) / Fold change /veh SPINT1 (11716480_a_at) / RFU GAP43 (11754022_s_at) / Fold change /veh GAP43 (11754022_s_at) / RFU A4GNT (11735810_at) / Fold change /veh A4GNT (11735810_at) / RFU PRB3 (11715151_x_at) / Fold change /veh PRB3 (11715151_x_at) / RFU TUBB4B (11761932_at) / Fold change /veh TUBB4B (11761932_at) / RFU CAPN14 (11732068_a_at) / Fold change /veh CAPN14 (11732068_a_at) / RFU TMCC2 (11721928_a_at) / Fold change /veh TMCC2 (11721928_a_at) / RFU IRGQ (11745062_a_at) / Fold change /veh IRGQ (11745062_a_at) / RFU FAM174B (11720279_a_at) / Fold change /veh FAM174B (11720279_a_at) / RFU TMPRSS4 (11748680_a_at) / Fold change /veh TMPRSS4 (11748680_a_at) / RFU FAM212B (11763350_a_at) / Fold change /veh FAM212B (11763350_a_at) / RFU PLEKHG5 (11743358_a_at) / Fold change /veh PLEKHG5 (11743358_a_at) / RFU ZSCAN30 (11745921_a_at) / Fold change /veh ZSCAN30 (11745921_a_at) / RFU CMKLR1 (11741424_a_at) / Fold change /veh CMKLR1 (11741424_a_at) / RFU LOC101060620 /// MAPK8IP1 (11723275_at) / Fold change /veh LOC101060620 /// MAPK8IP1 (11723275_at) / RFU SPTSSB (11747773_x_at) / Fold change /veh SPTSSB (11747773_x_at) / RFU PRSS12 (11739890_at) / Fold change /veh PRSS12 (11739890_at) / RFU BIN1 (11741810_x_at) / Fold change /veh BIN1 (11741810_x_at) / RFU WNT11 (11732464_a_at) / Fold change /veh WNT11 (11732464_a_at) / RFU C10orf10 (11716521_a_at) / Fold change /veh C10orf10 (11716521_a_at) / RFU C5orf56 (11738089_at) / Fold change /veh C5orf56 (11738089_at) / RFU CYB561 (11721691_x_at) / Fold change /veh CYB561 (11721691_x_at) / RFU ANKRD19P (11752326_a_at) / Fold change /veh ANKRD19P (11752326_a_at) / RFU OR2T12 /// OR2T33 /// OR2T8 (11738714_s_at) / Fold change /veh OR2T12 /// OR2T33 /// OR2T8 (11738714_s_at) / RFU VCAN (11748164_a_at) / Fold change /veh VCAN (11748164_a_at) / RFU JSRP1 (11732532_at) / Fold change /veh JSRP1 (11732532_at) / RFU KRTAP10-11 (11738290_x_at) / Fold change /veh KRTAP10-11 (11738290_x_at) / RFU MYO3A (11730013_a_at) / Fold change /veh MYO3A (11730013_a_at) / RFU EBF3 (11725865_a_at) / Fold change /veh EBF3 (11725865_a_at) / RFU CAMK2N1 (11719241_x_at) / Fold change /veh CAMK2N1 (11719241_x_at) / RFU C5orf56 (11738088_a_at) / Fold change /veh C5orf56 (11738088_a_at) / RFU OLFML3 (11715873_a_at) / Fold change /veh OLFML3 (11715873_a_at) / RFU LOC100653217 /// NTM (11731650_a_at) / Fold change /veh LOC100653217 /// NTM (11731650_a_at) / RFU MAPK11 (11762145_a_at) / Fold change /veh MAPK11 (11762145_a_at) / RFU FIZ1 (11724087_x_at) / Fold change /veh FIZ1 (11724087_x_at) / RFU OASL (11726364_x_at) / Fold change /veh OASL (11726364_x_at) / RFU SOX15 (11748057_x_at) / Fold change /veh SOX15 (11748057_x_at) / RFU CD79A (11719716_a_at) / Fold change /veh CD79A (11719716_a_at) / RFU HIST1H1D (11736915_at) / Fold change /veh HIST1H1D (11736915_at) / RFU CASKIN2 (11723855_a_at) / Fold change /veh CASKIN2 (11723855_a_at) / RFU LOC730098 (11760151_x_at) / Fold change /veh LOC730098 (11760151_x_at) / RFU OR4N2 (11742367_at) / Fold change /veh OR4N2 (11742367_at) / RFU PRRT2 (11749266_a_at) / Fold change /veh PRRT2 (11749266_a_at) / RFU SNX32 (11753110_a_at) / Fold change /veh SNX32 (11753110_a_at) / RFU CDHR5 (11726645_a_at) / Fold change /veh CDHR5 (11726645_a_at) / RFU RCAN1 (11760418_a_at) / Fold change /veh RCAN1 (11760418_a_at) / RFU FAM167A (11723789_a_at) / Fold change /veh FAM167A (11723789_a_at) / RFU FAM26E (11764081_at) / Fold change /veh FAM26E (11764081_at) / RFU ISYNA1 (11749810_s_at) / Fold change /veh ISYNA1 (11749810_s_at) / RFU ACY1 (11761880_at) / Fold change /veh ACY1 (11761880_at) / RFU 11764098_at / Fold change /veh 11764098_at / RFU SAMD14 (11745864_x_at) / Fold change /veh SAMD14 (11745864_x_at) / RFU NPB (11741838_a_at) / Fold change /veh NPB (11741838_a_at) / RFU TMPRSS6 (11731388_a_at) / Fold change /veh TMPRSS6 (11731388_a_at) / RFU KRTAP10-2 (11738614_at) / Fold change /veh KRTAP10-2 (11738614_at) / RFU ARHGAP8 /// PRR5-ARHGAP8 (11727945_x_at) / Fold change /veh ARHGAP8 /// PRR5-ARHGAP8 (11727945_x_at) / RFU KRTAP5-7 /// NADSYN1 (11734609_at) / Fold change /veh KRTAP5-7 /// NADSYN1 (11734609_at) / RFU RASL12 (11751679_a_at) / Fold change /veh RASL12 (11751679_a_at) / RFU CDKN2B (11736163_a_at) / Fold change /veh CDKN2B (11736163_a_at) / RFU PRF1 (11729649_at) / Fold change /veh PRF1 (11729649_at) / RFU, ZNF638 /// ZNF638-IT1 / Fold change vs veh, ZNF638 /// ZNF638-IT1 / RFU, PANK3 / Fold change vs veh, PANK3 / RFU, SH3YL1 / Fold change vs veh, SH3YL1 / RFU, ZEB2 / Fold change vs veh, ZEB2 / RFU, NRIP1 / Fold change vs veh, NRIP1 / RFU, PTTG1IP / Fold change vs veh, PTTG1IP / RFU, CAPN2 / Fold change vs veh, CAPN2 / RFU, MED14 / Fold change vs veh, MED14 / RFU, SNORA58 / Fold change vs veh, SNORA58 / RFU, C1orf63 / Fold change vs veh, C1orf63 / RFU, LRRFIP1 / Fold change vs veh, LRRFIP1 / RFU, NDUFAF7 / Fold change vs veh, NDUFAF7 / RFU, SLC12A2 / Fold change vs veh, SLC12A2 / RFU, IBTK / Fold change vs veh, IBTK / RFU, ESF1 / Fold change vs veh, ESF1 / Fold change vs veh, TMEM50B / RFU, TAOK1 / Fold change vs veh, TAOK1 / RFU, ACBD3 / Fold change vs veh, ACBD3 / RFU, TMA16 / Fold change vs veh, TMA16 / RFU, RWDD3 / Fold change vs veh, RWDD3 / RFU, BCAT1 / Fold change vs veh, BCAT1 / RFU, EDEM3 / Fold change vs veh, EDEM3 / RFU, TMEM33 / Fold change vs veh, TMEM33 / RFU, WDR75 / Fold change vs veh, WDR75 / RFU, AHCTF1 / Fold change vs veh, AHCTF1 / RFU, TFRC / Fold change vs veh, TFRC / RFU, ZDHHC17 / Fold change vs veh, ZDHHC17 / RFU, NOM1 / Fold change vs veh, NOM1 / RFU, ARL8B / Fold change vs veh, ARL8B / RFU, ZBTB11 / Fold change vs veh, ZBTB11 / RFU, TAMM41 / Fold change vs veh, TAMM41 / RFU, KIAA1704 /// LOC100996395 / Fold change vs veh, KIAA1704 /// LOC100996395 / RFU, ING1 / Fold change vs veh, ING1 / RFU, TRMT61B / Fold change vs veh, TRMT61B / RFU, FUBP3 / Fold change vs veh, FUBP3 / RFU, TP53 / Fold change vs veh, TP53 / RFU, TNKS2 / Fold change vs veh, TNKS2 / RFU, ZFP14 / Fold change vs veh, ZFP14 / RFU, ACTR2 / Fold change vs veh, ACTR2 / RFU, PPP3R1 / Fold change vs veh, PPP3R1 / RFU, PIK3R1 / Fold change vs veh, PIK3R1 / RFU, HNRNPA1 / Fold change vs veh, HNRNPA1 / RFU, RNF170 / Fold change vs veh, RNF170 / RFU, ZNF28 / Fold change vs veh, ZNF28 / RFU, RNGTT / Fold change vs veh, RNGTT / RFU, OGT / Fold change vs veh, OGT / RFU, BRD1 / Fold change vs veh, BRD1 / RFU, MARS / Fold change vs veh, MARS / RFU, ZNF655 / Fold change vs veh, ZNF655 / RFU, FAHD1 / Fold change vs veh, FAHD1 / RFU, BDP1 / Fold change vs veh, BDP1 / RFU, LRRCC1 / Fold change vs veh, LRRCC1 / RFU, ARID1A / Fold change vs veh, ARID1A / RFU, ZNF146 / Fold change vs veh, ZNF146 / RFU, ZNF330 / Fold change vs veh, ZNF330 / RFU, GPN3 / Fold change vs veh, GPN3 / RFU, C9orf123 / Fold change vs veh, C9orf123 / RFU, N4BP2L2 / Fold change vs veh, N4BP2L2 / RFU, ARFIP1 / Fold change vs veh, ARFIP1 / RFU, FAM179B / Fold change vs veh, FAM179B / RFU, BCL10 / Fold change vs veh, BCL10 / RFU, UHRF1BP1L / Fold change vs veh, UHRF1BP1L / RFU, BET1 / Fold change vs veh, BET1 / RFU, CNOT2 / Fold change vs veh, CNOT2 / RFU, ZNF268 / Fold change vs veh, ZNF268 / Fold change vs veh, ZNF507 / RFU, DGCR2 / Fold change vs veh, DGCR2 / RFU, WDSUB1 / Fold change vs veh, WDSUB1 / Fold change vs veh, HSP90B1 /// MIR3652 / RFU, ADSS / Fold change vs veh, ADSS / RFU, GK / Fold change vs veh, GK / RFU, ZNF148 / Fold change vs veh, ZNF148 / RFU, TAF9 / Fold change vs veh, TAF9 / RFU, SLC1A5 / Fold change vs veh, SLC1A5 / RFU, SLMO2 / Fold change vs veh, SLMO2 / RFU, ABCC4 / Fold change vs veh, ABCC4 / RFU, LOC101060439 /// RAP1B / Fold change vs veh, LOC101060439 /// RAP1B / RFU, RFX7 / Fold change vs veh, RFX7 / RFU, GTPBP10 / Fold change vs veh, GTPBP10 / RFU, CNEP1R1 / Fold change vs veh, CNEP1R1 / RFU, BIVM-ERCC5 /// ERCC5 / Fold change vs veh, BIVM-ERCC5 /// ERCC5 / RFU, ILF3 / Fold change vs veh, ILF3 / RFU 11762660_at / Fold change /veh 11762660_at / RFU VCAN (11757783_s_at) / Fold change /veh VCAN (11757783_s_at) / RFU DDX43 (11728927_at) / Fold change /veh DDX43 (11728927_at) / RFU KRT8 (11758188_x_at) / Fold change /veh KRT8 (11758188_x_at) / RFU NKD1 (11759106_at) / Fold change /veh NKD1 (11759106_at) / RFU SRD5A1 (11742802_a_at) / Fold change /veh SRD5A1 (11742802_a_at) / RFU TPSAB1 /// TPSB2 (11721975_s_at) / Fold change /veh TPSAB1 /// TPSB2 (11721975_s_at) / RFU GSTM3 (11746129_a_at) / Fold change /veh GSTM3 (11746129_a_at) / RFU IL23R (11737362_x_at) / Fold change /veh IL23R (11737362_x_at) / RFU TMEM51 (11727254_a_at) / Fold change /veh TMEM51 (11727254_a_at) / RFU PIWIL2 (11732686_x_at) / Fold change /veh PIWIL2 (11732686_x_at) / RFU ORM1 (11744905_x_at) / Fold change /veh ORM1 (11744905_x_at) / RFU CCDC152 (11743942_at) / Fold change /veh CCDC152 (11743942_at) / RFU ECM1 (11717891_a_at) / Fold change /veh ECM1 (11717891_a_at) / RFU IL23R (11748794_a_at) / Fold change /veh IL23R (11748794_a_at) / RFU TNFAIP8L3 (11732012_x_at) / Fold change /veh TNFAIP8L3 (11732012_x_at) / RFU MBOAT4 (11741988_at) / Fold change /veh MBOAT4 (11741988_at) / RFU 11764193_at / Fold change /veh 11764193_at / RFU TMEM53 (11763286_at) / Fold change /veh TMEM53 (11763286_at) / RFU MAGEB2 (11727129_at) / Fold change /veh MAGEB2 (11727129_at) / RFU TMEM200A (11744735_a_at) / Fold change /veh TMEM200A (11744735_a_at) / RFU CCDC152 (11751479_a_at) / Fold change /veh CCDC152 (11751479_a_at) / RFU FAM211A (11726209_a_at) / Fold change /veh FAM211A (11726209_a_at) / RFU RGS16 (11746705_a_at) / Fold change /veh RGS16 (11746705_a_at) / RFU VCAN (11755009_s_at) / Fold change /veh VCAN (11755009_s_at) / RFU RHOB (11743442_s_at) / Fold change /veh RHOB (11743442_s_at) / RFU RGS16 (11720943_a_at) / Fold change /veh RGS16 (11720943_a_at) / RFU RGS16 (11720944_at) / Fold change /veh RGS16 (11720944_at) / RFU, VPS4B / Fold change vs veh, VPS4B / RFU, CREB1 / Fold change vs veh, CREB1 / RFU, DNAJC13 / Fold change vs veh, DNAJC13 / RFU, GNAQ / Fold change vs veh, GNAQ / RFU, CDK5R1 / Fold change vs veh, CDK5R1 / RFU, ZRANB3 / Fold change vs veh, ZRANB3 / RFU, CUL4A / Fold change vs veh, CUL4A / RFU, CCNY / Fold change vs veh, CCNY / RFU, UFL1 / Fold change vs veh, UFL1 / RFU, COG3 / Fold change vs veh, COG3 / RFU, DIAPH2 / Fold change vs veh, DIAPH2 / RFU, SKA2 / Fold change vs veh, SKA2 / RFU, AFF3 / Fold change vs veh, AFF3 / RFU, LMF1 / Fold change vs veh, LMF1 / RFU, IPO11 / Fold change vs veh, IPO11 / RFU, DFFB / Fold change vs veh, DFFB / RFU, FOXP1 / Fold change vs veh, FOXP1 / RFU, CARD8 / Fold change vs veh, CARD8 / RFU, STRN3 / Fold change vs veh, STRN3 / RFU, ADK / Fold change vs veh, ADK / RFU, RASSF2 / Fold change vs veh, RASSF2 / RFU, WIPF1 / Fold change vs veh, WIPF1 / RFU, LARP1B / Fold change vs veh, LARP1B / RFU, RASA1 / Fold change vs veh, RASA1 / RFU, RB1 / Fold change vs veh, RB1 / RFU, PPFIA1 / Fold change vs veh, PPFIA1 / RFU, MAT2A / Fold change vs veh, MAT2A / RFU, CCT5 / Fold change vs veh, CCT5 / RFU, WDR92 / Fold change vs veh, WDR92 / RFU, CUX1 / Fold change vs veh, CUX1 / RFU, TTC7A / Fold change vs veh, TTC7A / RFU, TMEM135 / Fold change vs veh, TMEM135 / RFU, DEPTOR / Fold change vs veh, DEPTOR / RFU, CPM / Fold change vs veh, CPM / RFU, DNAJB6 / Fold change vs veh, DNAJB6 / RFU, CACNA2D3 / Fold change vs veh, CACNA2D3 / RFU, DTX4 / Fold change vs veh, DTX4 / RFU, TFCP2 / Fold change vs veh, TFCP2 / RFU, GMCL1 /// GMCL1P1 / Fold change vs veh, GMCL1 /// GMCL1P1 / RFU, AEBP2 / Fold change vs veh, AEBP2 / RFU, SNHG1 /// SNORD22 /// SNORD25 /// SNORD26 /// SNORD27 /// SNORD28 /// SNORD29 /// SNORD31 / Fold change vs veh, SNHG1 /// SNORD22 /// SNORD25 /// SNORD26 /// SNORD27 /// SNORD28 /// SNORD29 /// SNORD31 / Fold change (Aza/veh), C12orf56 (ProbeSet 11735607_a_at) / Fold change (ACY-1035/veh), C12orf56 (ProbeSet 11735607_a_at) / Fold change (Aza/veh), FGFR1OP (ProbeSet 11751329_s_at) / Fold change (ACY-1035/veh), FGFR1OP (ProbeSet 11751329_s_at) / Fold change (Aza/veh), VPS36 (ProbeSet 11739960_a_at) / Fold change (ACY-1035/veh), VPS36 (ProbeSet 11739960_a_at) / RFU SYPL1 (11715823_x_at) / Fold change /veh SYPL1 (11715823_x_at) / RFU IGFBP7 (11715501_s_at) / Fold change /veh IGFBP7 (11715501_s_at) / RFU REEP3 (11722064_at) / Fold change /veh REEP3 (11722064_at) / RFU IGLL1 (11728026_x_at) / Fold change /veh IGLL1 (11728026_x_at): dose or concentration left out as unconfirmed
Settings: ProbeSet 11743929_at; LIST B

Nc1ncn([C@@H]2O[C@H](CO)[C@@H](O)[C@H]2O)c(=O)n1 [azacitidine]
Fold change vs veh, UHRF1BP1L: 0.95
